Data reported in publication PMC7377239, “Cardiovascular Effects of Polychlorinated Biphenyls and Their Major Metabolites” (Environmental Health Perspectives, 2020).
Where a name gives a salt, the structure may show the parent alone. Read-outs that look alike come from different tables or passages of the source.

Test system: iCell endothelial cells (human iPSC-derived ECs)
Test: Tube formation (tubulogenesis) assay in iCell endothelial cells, 18 h
Type: cell-based
Settings: Homo sapiens, Endothelial cell, 18 hr; for activity at 0.1 µM: 0.10 µM
Protocol: The culture conditions of iCell®-endothelial cells were as reported elsewhere ([Iwata et al. 2017]). Briefly, T75 flasks were coated with a fibronectin solution ( 3 μg/cm^2 ) followed by incubation for 1–2 h. Cells were thawed for 3 min in a 37°C water bath. Thawed cells were added to maintenance medium made of VascuLife VEGF Medium Complete Kit, excluding the supplied FBS, and iCell® Endothelial Cells Medium Supplement. The final formulation of the maintenance medium is detailed in ([Iwata et al. 2017]). The aliquoted fibronectin solution was aspirated from the T75 flasks, and cells were seeded at 1.0×10^4 cells/cm^2 . Cells were maintained at 37°C and 5% CO2 with media changes occurring every 2 d and passaged every 3–4 d using TrypLE™ Express. All experiments were conducted on cells between passages 1 and 5.
Tube formation assays were performed on Geltrex™ LDEV-free reduced growth factor basement membrane using both iCell®-endothelial cells and HUVECs in 384-well format exactly as detailed in Iwata et al. ([2017]). Negative controls included media-only and vehicle control (i.e., 0.5% vol/vol DMSO in cell culture media) wells. Positive assay controls were consistent with previously published reports ([Iwata et al. 2017]) and included TAB ( 50μM ) as a cytotoxic control, and nocodazole ( 0.01–1μM ), suramin ( 0.5–50μM ), histamine ( 0.1–100μM ), and chloroquine ( 1–500μM ) as chemicals associated with specific effects on ECs. Each test chemical was screened in triplicate for each concentration. Briefly, for iCell®-endothelial cells, starvation media consisted of VascuLife® basal medium with 4 mM L-glutamine LifeFactor and 0.1% iCell®-endothelial cells medium supplement. To counter dilution effects, a 2× concentration of the HUVEC maintenance medium supplemented with additional VEGF was created (EGM™-2 BulletKits™ at 2× concentration; also the VEGF component was replaced with 12.5 ng/mL VEGF). Geltrex™ LDEV-free reduced growth factor basement membrane was thawed overnight and dispensed into 384-well plates ( 10μL/well ) with tapping and rotating to evenly coat. The plates were incubated for 1 h in a cell culture incubator at 37°C and 5% CO2 . A 2× PCB plate (containing all of the PCBs and metabolites in dose–response) was prepared in basal media and added, 25μL per well, to the Geltrex™ coated plates. On separate plates, cells were seeded 7,500 (iPSC- ECs) or 3,500 (HUVEC) cells/well. Cells were exposed to chemicals overnight at 37°C and 5% CO2 and stained with 3× concentration of calcein AM ( 25μL /well, 6μmol/L ) for 15 min before imaging. Images were captured at 4× magnification with the FITC filter (calcein AM). Images were analyzed with the angiogenesis module software within MetaXpress™ (Molecular Devices).
Phenotypic responses were quantitatively assessed using concentration–response modeling as detailed elsewhere ([Sirenko et al. 2017]). Briefly, phenotypic readouts were normalized to vehicle controls and fit to a four-parameter logistic model in R studio software (version 3.1.1; R Development Core Team). Following EPA guidance on dose–response modeling, a cutoff of one standard deviation across means of vehicle control (i.e., 0.5% vol/vol DMSO in cell culture media) wells was applied to determine the point-of-departure (POD) values ([U.S. EPA 2012]). In the absence of a concentration–response, the highest tested concentration (i.e., 100μM ) was assigned as “no observable adverse effect level.” The concentration–response assessment R script, as well as templates for vehicle and concentration–response data, are available as a supplement to Sirenko et al. ([2017]). The ability of physicochemical properties to predict differences in PODs were evaluated by multiregression and mixed-effects modeling using R.

[1] = iPSC-EC tube formation, 0.00 µM control = 100.00, read-out: endo.mtl.18hr
[2] = iPSC-EC tube formation, 0.00 µM control = 100.00, read-out: endo.tlps.18hr
[3] = iPSC-EC tube formation, 0.00 µM control = 100.00, read-out: endo.tta.18hr
[4] = iPSC-EC tube formation, 0.00 µM control = 100.00, read-out: endo.ttl.18hr
[5] = iPSC-EC tube formation, top concentration 100.00 µM, read-out: endo.mtl.18hr POD
[6] = iPSC-EC tube formation, top concentration 100.00 µM, read-out: endo.tlps.18hr POD
[7] = iPSC-EC tube formation, top concentration 100.00 µM, read-out: endo.tta.18hr POD
[8] = iPSC-EC tube formation, top concentration 100.00 µM, read-out: endo.ttl.18hr POD

Row | SMILES | activity at 0.01 µM [1] [%] | activity at 0.01 µM [2] [%] | activity at 0.01 µM [3] [%] | activity at 0.01 µM [4] [%] | activity at 0.1 µM [1] [%] | activity at 0.1 µM [2] [%] | activity at 0.1 µM [3] [%] | activity at 0.1 µM [4] [%] | activity at 1 µM [1] [%] | activity at 1 µM [2] [%] | activity at 1 µM [3] [%] | activity at 1 µM [4] [%] | activity at 10 µM [1] [%] | activity at 10 µM [2] [%] | activity at 10 µM [3] [%] | activity at 10 µM [4] [%] | activity at 100 µM [1] [%] | activity at 100 µM [2] [%] | activity at 100 µM [3] [%] | activity at 100 µM [4] [%] | further results
1 | O=S(=O)(O)Oc1cc(Cl)c(-c2cc(Cl)ccc2Cl)cc1Cl [4-yl PCB 52 sulfate] | 116 | 87.8 | 122 | 129 | 108 | 115 | 115 | 119 | 109 | 108 | 112 | 119 | 73.9 | 46.2 | 70 | 71.1 | 46.8 | 10.1 | 0.18 | 0.34 | minimal effective concentration [5]: 7.44 µM; minimal effective concentration [6]: 5.74 µM; minimal effective concentration [7]: 8.83 µM; minimal effective concentration [8]: 9.64 µM
2 | Oc1ccc(O)c(-c2ccc(Cl)cc2)c1 [2',5'-DiOH PCB3] | 99.4 | 100 | 127 | 115 | 104 | 103 | 104 | 98.5 | 62 | 66.5 | 60.7 | 55 | 61.7 | 30.6 | 64.9 | 63 | 58.4 | 7.76 | 0.41 | 0.74 | minimal effective concentration [5]: 0.47 µM; minimal effective concentration [6]: 0.53 µM; minimal effective concentration [7]: 1.63 µM; minimal effective concentration [8]: 1.51 µM
3 | Clc1ccc(-c2ccccc2)cc1 [PCB3] | 114 | 108 | 123 | 120 | 106 | 111 | 102 | 98.7 | 119 | 171 | 126 | 123 | 118 | 103 | 109 | 111 | 107 | 113 | 93.3 | 95.4 | minimal effective concentration [5]: 100 µM; minimal effective concentration [6]: 100 µM; minimal effective concentration [7]: 100 µM; minimal effective concentration [8]: 100 µM
4 | Oc1ccc(O)c(-c2ccc(Cl)cc2)c1 [2',5'-diOH-PCB 3, 4-Chloro-2′,5′-dihydroxybiphenyl] |  |  |  |  |  |  |  |  |  |  |  |  |  |  |  |  |  |  |  |  | minimal effective concentration (endothelial cells (endo), tube formation mtl, read-out: POD endo.mtl.18hr): 0.47 µM; minimal effective concentration (endothelial cells (endo), tube formation tlps, read-out: POD endo.tlps.18hr): 0.53 µM; minimal effective concentration (endothelial cells (endo), tube formation tta, read-out: POD endo.tta.18hr): 1.63 µM; minimal effective concentration (endothelial cells (endo), tube formation ttl, read-out: POD endo.ttl.18hr): 1.51 µM
